For this experiment, the target named is Pim-1 (Homo sapiens, UniProt P11309). Briefly: X-ray crystal structure. The class given is biochemical.

Structures are written as SMILES.

`O=C/C=C/c1ccccc1O` [2′-HCA] had an IC50 of approximately 3 µM.
